From PMC6199744, “Development of Chemical Proteomics for the Folateome and Analysis of the Kinetoplastid Folateome” (ACS Infectious Diseases, 2018)
Like-named read-outs stand apart in the source and are kept apart here.

Tests used:
Format in all cases: binding
[1] = molecular target: T1, HeLa cell extract proteins (Homo sapiens, UniProt Q16531)
T1 construct: endogenous in cells; host or cells: HeLa cell extract

[2] = molecular target: T2, HeLa cell extract proteins (Homo sapiens, UniProt Q9UL46)
T2 construct: endogenous in cells; host or cells: HeLa cell extract

[3] = molecular target: T3, HeLa cell extract proteins (Homo sapiens, UniProt P06744)
T3 construct: endogenous in cells; host or cells: HeLa cell extract

[4] = molecular target: T4, HeLa cell extract proteins (Homo sapiens, UniProt P50454)
T4 construct: endogenous in cells; host or cells: HeLa cell extract
T4 sequence (P50454 19-418): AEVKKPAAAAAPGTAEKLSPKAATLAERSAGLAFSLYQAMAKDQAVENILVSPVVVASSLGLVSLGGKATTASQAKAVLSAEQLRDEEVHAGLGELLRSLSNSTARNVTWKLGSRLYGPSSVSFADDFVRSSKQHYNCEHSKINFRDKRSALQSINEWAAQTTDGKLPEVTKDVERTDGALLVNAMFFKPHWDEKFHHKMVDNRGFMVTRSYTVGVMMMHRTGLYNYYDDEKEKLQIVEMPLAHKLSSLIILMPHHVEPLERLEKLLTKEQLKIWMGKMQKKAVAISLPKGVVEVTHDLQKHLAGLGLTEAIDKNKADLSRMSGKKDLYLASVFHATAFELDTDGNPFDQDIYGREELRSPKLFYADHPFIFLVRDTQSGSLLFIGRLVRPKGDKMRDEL

[5] = molecular target: T5, HeLa cell extract proteins (Homo sapiens, UniProt O75964)
T5 construct: endogenous in cells; host or cells: HeLa cell extract
T5 sequence (O75964 1-103): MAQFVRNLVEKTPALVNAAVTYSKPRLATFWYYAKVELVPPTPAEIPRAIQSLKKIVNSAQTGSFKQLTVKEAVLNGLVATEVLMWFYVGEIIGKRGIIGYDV

[6] = molecular target: T6, HeLa cell extract proteins (Homo sapiens, UniProt P31153)
T6 construct: endogenous in cells; host or cells: HeLa cell extract

[7] = molecular target: T7, HeLa cell extract proteins (Homo sapiens, UniProt P62826)
T7 construct: endogenous in cells; host or cells: HeLa cell extract

[8] = molecular target: T8, HeLa cell extract proteins (Homo sapiens, UniProt P42356)
T8 construct: endogenous in cells; host or cells: HeLa cell extract

[9] = molecular target: T9, HeLa cell extract proteins (Homo sapiens, UniProt P55072)
T9 construct: endogenous in cells; host or cells: HeLa cell extract

[10] = molecular target: T10, HeLa cell extract proteins (Homo sapiens, UniProt Q53GQ0)
T10 construct: endogenous in cells; host or cells: HeLa cell extract
T10 sequence (Q53GQ0 1-312): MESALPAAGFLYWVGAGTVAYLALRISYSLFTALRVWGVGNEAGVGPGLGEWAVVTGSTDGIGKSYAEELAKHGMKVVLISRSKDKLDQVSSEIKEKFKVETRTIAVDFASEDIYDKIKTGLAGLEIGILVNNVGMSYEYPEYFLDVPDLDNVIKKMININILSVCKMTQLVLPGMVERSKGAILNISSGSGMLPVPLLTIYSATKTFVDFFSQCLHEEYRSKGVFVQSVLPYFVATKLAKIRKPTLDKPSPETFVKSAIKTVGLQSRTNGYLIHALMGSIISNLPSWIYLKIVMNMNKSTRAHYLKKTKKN

[11] = molecular target: T11, HeLa cell extract proteins (Homo sapiens, UniProt P13995)
T11 construct: endogenous in cells; host or cells: HeLa cell extract
T11 sequence (P13995 36-350): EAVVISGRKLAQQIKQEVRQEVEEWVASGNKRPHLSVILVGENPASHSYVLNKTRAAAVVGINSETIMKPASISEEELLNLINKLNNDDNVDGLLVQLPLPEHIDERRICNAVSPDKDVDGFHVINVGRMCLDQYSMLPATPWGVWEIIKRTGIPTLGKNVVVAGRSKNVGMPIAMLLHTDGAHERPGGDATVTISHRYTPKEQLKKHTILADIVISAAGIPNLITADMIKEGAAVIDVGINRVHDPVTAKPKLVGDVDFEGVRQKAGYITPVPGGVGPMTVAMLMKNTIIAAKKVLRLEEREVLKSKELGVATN

[12] = molecular target: T12, HeLa cell extract proteins (Homo sapiens, UniProt P40925)
T12 construct: endogenous in cells; host or cells: HeLa cell extract
T12 sequence (P40925 1-334): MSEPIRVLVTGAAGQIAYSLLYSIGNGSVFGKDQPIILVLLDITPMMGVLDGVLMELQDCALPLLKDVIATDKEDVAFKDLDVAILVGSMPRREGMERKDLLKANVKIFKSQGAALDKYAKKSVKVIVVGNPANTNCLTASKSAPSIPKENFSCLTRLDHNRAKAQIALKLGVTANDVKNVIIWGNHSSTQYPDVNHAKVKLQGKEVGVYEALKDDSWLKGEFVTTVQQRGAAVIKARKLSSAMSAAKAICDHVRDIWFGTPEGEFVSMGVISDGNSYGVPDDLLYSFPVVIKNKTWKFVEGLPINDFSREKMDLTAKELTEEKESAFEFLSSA

[13] = molecular target: T13, HeLa cell extract proteins (Homo sapiens, UniProt P35232)
T13 construct: endogenous in cells; host or cells: HeLa cell extract
T13 sequence (P35232 1-272): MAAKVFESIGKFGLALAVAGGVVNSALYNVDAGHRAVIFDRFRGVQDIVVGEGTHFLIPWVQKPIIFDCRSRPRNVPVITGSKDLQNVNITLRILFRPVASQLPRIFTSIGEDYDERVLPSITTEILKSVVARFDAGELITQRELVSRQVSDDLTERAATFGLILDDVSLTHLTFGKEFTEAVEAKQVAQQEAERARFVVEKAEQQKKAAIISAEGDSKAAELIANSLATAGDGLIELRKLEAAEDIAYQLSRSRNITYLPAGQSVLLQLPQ

[14] = molecular target: T14, HeLa cell extract proteins (Homo sapiens, UniProt P20674)
T14 construct: endogenous in cells; host or cells: HeLa cell extract

[15] = HeLa, protein GPI (CDNA FLJ56429, HIGHLY SIMILAR TO GLUCOSE-6-PHOSPHATE ISOMERASE.)
[16] = captured protein HSD17B12, HeLa
[17] = HeLa, protein MDH1 (MALATE DEHYDROGENASE, CYTOPLASMIC.)

T2 sequence (Q9UL46 whole entry): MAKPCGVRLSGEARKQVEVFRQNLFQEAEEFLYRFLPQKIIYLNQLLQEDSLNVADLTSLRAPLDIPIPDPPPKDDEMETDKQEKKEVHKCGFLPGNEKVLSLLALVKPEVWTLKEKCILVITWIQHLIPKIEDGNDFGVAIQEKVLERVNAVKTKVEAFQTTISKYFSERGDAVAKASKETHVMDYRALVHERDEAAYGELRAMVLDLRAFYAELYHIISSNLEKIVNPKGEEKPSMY
T6 sequence (P31153 whole entry): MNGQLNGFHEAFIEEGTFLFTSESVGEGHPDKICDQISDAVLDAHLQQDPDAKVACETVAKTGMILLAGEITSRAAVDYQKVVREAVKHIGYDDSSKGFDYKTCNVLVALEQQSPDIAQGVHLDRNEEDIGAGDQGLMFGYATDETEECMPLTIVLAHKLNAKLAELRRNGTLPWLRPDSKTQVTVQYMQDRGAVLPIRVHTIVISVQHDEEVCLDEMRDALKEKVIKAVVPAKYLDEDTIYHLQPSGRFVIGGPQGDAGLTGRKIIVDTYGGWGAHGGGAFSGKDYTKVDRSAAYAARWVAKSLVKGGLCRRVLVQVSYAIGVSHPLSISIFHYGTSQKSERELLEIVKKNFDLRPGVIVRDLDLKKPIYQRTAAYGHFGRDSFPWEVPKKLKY
T14 sequence (P20674 42-150): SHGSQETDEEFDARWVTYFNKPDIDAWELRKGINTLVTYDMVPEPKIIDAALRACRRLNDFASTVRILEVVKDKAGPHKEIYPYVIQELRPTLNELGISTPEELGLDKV
T8 sequence (P42356 whole entry): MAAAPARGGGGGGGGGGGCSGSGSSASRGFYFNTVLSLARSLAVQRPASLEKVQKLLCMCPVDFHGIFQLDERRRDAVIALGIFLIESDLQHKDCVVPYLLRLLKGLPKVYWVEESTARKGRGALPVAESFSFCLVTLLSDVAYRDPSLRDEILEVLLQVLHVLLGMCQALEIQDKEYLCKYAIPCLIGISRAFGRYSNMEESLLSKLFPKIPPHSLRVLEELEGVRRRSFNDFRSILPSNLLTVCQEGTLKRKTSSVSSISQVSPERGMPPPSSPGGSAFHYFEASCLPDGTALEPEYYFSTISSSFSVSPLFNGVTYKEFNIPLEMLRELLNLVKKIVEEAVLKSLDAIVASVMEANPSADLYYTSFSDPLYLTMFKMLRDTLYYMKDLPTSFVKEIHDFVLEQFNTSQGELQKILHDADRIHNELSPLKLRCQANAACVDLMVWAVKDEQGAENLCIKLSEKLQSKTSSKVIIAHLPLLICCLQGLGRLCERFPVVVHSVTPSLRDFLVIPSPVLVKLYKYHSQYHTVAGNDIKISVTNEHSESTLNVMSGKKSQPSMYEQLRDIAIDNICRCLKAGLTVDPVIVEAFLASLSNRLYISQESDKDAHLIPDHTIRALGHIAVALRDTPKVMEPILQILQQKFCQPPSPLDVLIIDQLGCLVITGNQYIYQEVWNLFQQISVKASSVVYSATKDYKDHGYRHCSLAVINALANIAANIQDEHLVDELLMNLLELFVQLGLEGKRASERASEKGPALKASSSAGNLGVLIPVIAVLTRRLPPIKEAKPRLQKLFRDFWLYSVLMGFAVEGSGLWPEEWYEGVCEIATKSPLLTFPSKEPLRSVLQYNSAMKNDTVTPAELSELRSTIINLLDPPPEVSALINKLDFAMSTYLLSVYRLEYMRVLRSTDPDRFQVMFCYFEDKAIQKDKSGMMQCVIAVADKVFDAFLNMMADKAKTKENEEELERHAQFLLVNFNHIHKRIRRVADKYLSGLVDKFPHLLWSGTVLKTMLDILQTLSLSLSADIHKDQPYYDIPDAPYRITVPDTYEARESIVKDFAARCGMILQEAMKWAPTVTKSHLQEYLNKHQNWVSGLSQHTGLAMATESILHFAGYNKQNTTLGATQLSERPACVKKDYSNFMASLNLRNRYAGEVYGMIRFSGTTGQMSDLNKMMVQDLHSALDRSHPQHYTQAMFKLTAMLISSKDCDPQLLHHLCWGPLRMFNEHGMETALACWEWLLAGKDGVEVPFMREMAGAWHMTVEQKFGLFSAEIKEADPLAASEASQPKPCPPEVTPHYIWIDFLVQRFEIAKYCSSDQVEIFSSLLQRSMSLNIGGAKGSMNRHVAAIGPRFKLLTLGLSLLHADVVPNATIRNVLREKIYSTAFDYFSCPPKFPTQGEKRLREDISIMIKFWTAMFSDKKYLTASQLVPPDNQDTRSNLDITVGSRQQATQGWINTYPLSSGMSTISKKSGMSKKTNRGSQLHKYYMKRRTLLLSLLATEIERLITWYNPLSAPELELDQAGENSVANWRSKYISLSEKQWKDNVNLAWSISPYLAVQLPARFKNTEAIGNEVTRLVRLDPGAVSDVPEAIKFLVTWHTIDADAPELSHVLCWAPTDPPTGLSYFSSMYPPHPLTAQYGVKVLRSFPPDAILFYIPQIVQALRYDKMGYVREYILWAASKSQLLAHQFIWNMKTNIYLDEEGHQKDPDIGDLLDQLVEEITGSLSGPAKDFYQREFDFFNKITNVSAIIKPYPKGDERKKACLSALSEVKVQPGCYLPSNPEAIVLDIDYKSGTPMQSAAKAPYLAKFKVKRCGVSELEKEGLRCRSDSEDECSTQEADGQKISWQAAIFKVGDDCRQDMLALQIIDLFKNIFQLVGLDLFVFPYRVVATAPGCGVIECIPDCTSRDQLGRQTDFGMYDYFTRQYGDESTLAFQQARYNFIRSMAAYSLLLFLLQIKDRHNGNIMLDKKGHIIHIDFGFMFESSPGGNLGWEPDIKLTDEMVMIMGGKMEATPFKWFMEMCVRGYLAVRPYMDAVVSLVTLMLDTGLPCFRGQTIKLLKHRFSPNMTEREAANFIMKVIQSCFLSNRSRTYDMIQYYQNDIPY
T9 sequence (P55072 whole entry): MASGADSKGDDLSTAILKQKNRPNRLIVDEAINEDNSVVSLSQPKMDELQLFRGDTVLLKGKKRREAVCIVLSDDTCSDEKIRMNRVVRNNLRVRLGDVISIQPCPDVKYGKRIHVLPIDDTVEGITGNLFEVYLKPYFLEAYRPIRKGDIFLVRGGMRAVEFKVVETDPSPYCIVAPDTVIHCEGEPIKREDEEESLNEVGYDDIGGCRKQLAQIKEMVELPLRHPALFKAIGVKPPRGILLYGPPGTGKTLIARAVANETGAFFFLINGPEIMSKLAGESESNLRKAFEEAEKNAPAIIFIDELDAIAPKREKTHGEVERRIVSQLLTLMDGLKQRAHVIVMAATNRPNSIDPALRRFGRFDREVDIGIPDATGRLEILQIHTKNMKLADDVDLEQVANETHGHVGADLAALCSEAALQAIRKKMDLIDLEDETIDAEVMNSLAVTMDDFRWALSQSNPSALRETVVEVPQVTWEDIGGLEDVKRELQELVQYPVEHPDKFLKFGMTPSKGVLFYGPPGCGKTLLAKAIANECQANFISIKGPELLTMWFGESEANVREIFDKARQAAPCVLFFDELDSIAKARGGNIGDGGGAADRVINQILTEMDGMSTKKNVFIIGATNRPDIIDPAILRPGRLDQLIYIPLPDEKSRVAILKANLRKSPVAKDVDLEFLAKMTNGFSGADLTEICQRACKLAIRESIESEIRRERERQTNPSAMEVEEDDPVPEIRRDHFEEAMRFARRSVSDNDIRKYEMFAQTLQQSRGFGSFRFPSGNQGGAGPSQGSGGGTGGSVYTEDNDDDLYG
T1 sequence (Q16531 whole entry): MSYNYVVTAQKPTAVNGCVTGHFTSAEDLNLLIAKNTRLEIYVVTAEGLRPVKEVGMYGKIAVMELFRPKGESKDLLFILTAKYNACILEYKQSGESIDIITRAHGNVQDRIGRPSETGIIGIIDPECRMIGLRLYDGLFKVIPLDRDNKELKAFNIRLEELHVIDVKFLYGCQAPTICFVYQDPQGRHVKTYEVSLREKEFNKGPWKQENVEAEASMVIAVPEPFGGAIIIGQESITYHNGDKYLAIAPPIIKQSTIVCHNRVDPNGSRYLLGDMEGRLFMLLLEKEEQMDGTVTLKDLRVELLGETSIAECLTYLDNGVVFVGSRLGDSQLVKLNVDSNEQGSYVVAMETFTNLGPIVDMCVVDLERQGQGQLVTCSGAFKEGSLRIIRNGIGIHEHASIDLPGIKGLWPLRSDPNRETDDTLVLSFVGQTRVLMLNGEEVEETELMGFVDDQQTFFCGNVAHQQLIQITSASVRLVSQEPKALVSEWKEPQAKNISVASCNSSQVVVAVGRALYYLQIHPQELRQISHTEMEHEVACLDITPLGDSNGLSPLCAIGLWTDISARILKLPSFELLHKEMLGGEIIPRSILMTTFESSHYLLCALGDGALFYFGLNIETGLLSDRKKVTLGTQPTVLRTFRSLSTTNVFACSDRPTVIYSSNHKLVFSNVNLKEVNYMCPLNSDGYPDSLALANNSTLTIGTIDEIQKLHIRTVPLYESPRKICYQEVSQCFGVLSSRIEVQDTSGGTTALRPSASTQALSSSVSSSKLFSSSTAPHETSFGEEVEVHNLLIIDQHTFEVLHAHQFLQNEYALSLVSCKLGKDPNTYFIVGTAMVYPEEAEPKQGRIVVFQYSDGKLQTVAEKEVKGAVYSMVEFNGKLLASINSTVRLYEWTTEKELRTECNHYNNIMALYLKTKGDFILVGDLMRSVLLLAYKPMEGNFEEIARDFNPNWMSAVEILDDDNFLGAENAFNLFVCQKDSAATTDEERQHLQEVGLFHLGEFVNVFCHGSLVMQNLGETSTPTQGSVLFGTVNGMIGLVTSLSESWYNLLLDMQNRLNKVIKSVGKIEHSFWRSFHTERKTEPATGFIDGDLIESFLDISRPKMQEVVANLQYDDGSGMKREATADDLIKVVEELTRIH

Row | Structure (SMILES) | fold changes relative to vehicle control ([1]; HeLa, protein DDB1) | fold changes relative to vehicle control ([2]; HeLa, protein PSME2) | fold changes relative to vehicle control ([3]; HeLa, protein GPI) | fold changes relative to vehicle control ([4]; HeLa, protein SERPINH1) | fold changes relative to vehicle control ([5]; HeLa, protein ATP5L) | fold changes relative to vehicle control ([6]; HeLa, protein MAT2A) | fold changes relative to vehicle control ([7]; HeLa, protein RAN) | fold changes relative to vehicle control ([8]; protein PI4KA, HeLa) | fold changes relative to vehicle control ([9]; HeLa, protein VCP) | fold changes relative to vehicle control ([10]; protein HSD17B12, HeLa) | fold changes relative to vehicle control ([11]; HeLa, captured protein MTHFD2) | fold changes relative to vehicle control ([12]; HeLa, protein MDH1) | fold changes relative to vehicle control ([13]; HeLa, protein PHB) | fold changes relative to vehicle control ([14]; HeLa, captured protein COX5A) | fold changes relative to vehicle control ([2]; protein PSME2, HeLa) | fold changes relative to vehicle control [3, 15] | fold changes relative to vehicle control ([4]; protein SERPINH1, HeLa) | fold changes relative to vehicle control ([5]; protein ATP5L, HeLa) | fold changes relative to vehicle control ([6]; protein MAT2A, HeLa) | fold changes relative to vehicle control ([7]; protein RAN, HeLa) | also measured
1 | Nc1nc2c(c(=O)[nH]1)N(C=O)C(CNc1ccc(C(=O)N[C@@H](CCC(=O)O)C(=O)O)cc1)CN2 (some centres unmarked) [LEU, leucovorin] | 0.95 | 0.94 | 0.98 | 0.99 | 1.07 | 0.99 | 0.98 | 0.82 | 0.98 | 0.78 | 0.7 | 1.01 | 0.95 | 1.23 |  |  |  |  |  |  | 
2 | Nc1nc2[nH]cc(CCc3ccc(C(=O)N[C@@H](CCC(=O)O)C(=O)O)cc3)c2c(=O)[nH]1 [PTX, pemetrexed] |  |  |  |  |  |  |  |  |  |  |  |  |  |  |  |  |  |  |  |  | fold changes relative to vehicle control [1]: 0.9; fold changes relative to vehicle control [2]: 0.9; fold changes relative to vehicle control [3]: 1.08; fold changes relative to vehicle control [4]: 1.08; fold changes relative to vehicle control [5]: 1.32; fold changes relative to vehicle control [6]: 1.07; fold changes relative to vehicle control [7]: 1; fold changes relative to vehicle control [8]: 0.73; fold changes relative to vehicle control [9]: 0.98; fold changes relative to vehicle control [10]: 0.91; fold changes relative to vehicle control [11]: 1.05; fold changes relative to vehicle control [12]: 1.2; fold changes relative to vehicle control [13]: 0.92; fold changes relative to vehicle control [14]: 1.5
3 | CCCCCCOc1ccc(Cc2cnc(N)nc2N)cc1 [compound 1] | 0.9 |  |  |  |  |  |  |  |  |  |  |  |  |  | 1.01 | 1.37 fold | 1.07 | 1.2 | 1.21 | 1.1 | fold changes relative to vehicle control ([8]; captured protein PI4KA, HeLa): 0.71; fold changes relative to vehicle control ([9]; protein VCP, HeLa): 0.94; fold changes relative to vehicle control [10, 16]: 0.87; fold changes relative to vehicle control ([11]; protein MTHFD2, HeLa): 0.09; fold changes relative to vehicle control [12, 17]: 1.3 fold; fold changes relative to vehicle control ([13]; protein PHB, HeLa): 1.06; fold changes relative to vehicle control ([14]; captured protein COX5A, HeLa): 0.98
4 | CCCCCCOc1cccc(Cc2cnc(N)nc2N)c1 [compound 2] | 1.05 |  |  |  |  |  |  |  |  |  |  |  |  |  | 1.38 | 2.26 fold | 1.61 | 0.95 | 1.55 | 1.8 | fold changes relative to vehicle control ([8]; captured protein PI4KA, HeLa): 1.14; fold changes relative to vehicle control ([9]; protein VCP, HeLa): 1.29; fold changes relative to vehicle control [10, 16]: 0.91; fold changes relative to vehicle control ([11]; protein MTHFD2, HeLa): 0.95; fold changes relative to vehicle control [12, 17]: 2.15 fold; fold changes relative to vehicle control ([13]; protein PHB, HeLa): 0.99; fold changes relative to vehicle control ([14]; captured protein COX5A, HeLa): 0.91
5 | Nc1nc2cccc(-c3ccccc3)c2n1Cc1ccc(Cl)c(Cl)c1 [compound 3] | 0.87 |  |  |  |  |  |  |  |  |  |  |  |  |  | 0.93 | 0.93 fold | 0.93 | 0.98 | 1.01 | 0.93 | fold changes relative to vehicle control ([8]; captured protein PI4KA, HeLa): 0.77; fold changes relative to vehicle control ([9]; protein VCP, HeLa): 0.94; fold changes relative to vehicle control [10, 16]: 1.15; fold changes relative to vehicle control ([11]; protein MTHFD2, HeLa): 1.03; fold changes relative to vehicle control [12, 17]: 0.87 fold; fold changes relative to vehicle control ([13]; protein PHB, HeLa): 0.93; fold changes relative to vehicle control ([14]; captured protein COX5A, HeLa): 1.18
6 | NCCOCCOCC(=O)Nc1nc2ncc(CNc3ccc(C(=O)NC(CCC(=O)O)C(=O)O)cc3)nc2c(=O)[nH]1 (centres unmarked) [compound 6] | 0.99 | 0.95 | 1.23 | 1.21 | 0.98 | 1.16 | 1.11 | 0.94 | 1.07 | 0.96 | 1.06 | 1.42 | 0.99 | 1.87 |  |  |  |  |  |  | 
7 | NCCCNc1ccc(C(=O)NC(CCC(=O)O)C(=O)O)cc1 (centres unmarked) [compound 7] | 0.96 | 0.89 | 0.96 | 0.98 | 0.97 | 1 | 0.95 | 1.02 | 1.01 | 1.19 | 1.02 | 0.93 | 0.96 | 1.63 |  |  |  |  |  |  | 
